# Test results from US12502369B2, “Methods of cancer treatment” (K-GEN, INC., priority 2015, dated 2025).
# “Also recorded” adds a separate entry of the source.
# Tests used:
# [1] = system: A549; test: Proliferation assay, PKC inhibitor in combination with PKC activators, A549; format: cell-based; conditions: Go6983 0.1 μM or 1 μM with K101A or K102
# Experimental: To assess if activation of different classes of PKC is required for anti-proliferation effect of PKC activators, Sotrastaurin, a PKC inhibitor targeting both conventional and novel classes of PKC, was tested in combination with PKC activators in the proliferation assays. Proliferation assay in lung cancer cell line A549 (FIG. 15) and in pancreatic cell line MiaPaCa-2 (FIG. 16) was performed as described in Example 1. […] Then, K101A or K102 was tested in 8- or 9-point titrations in the presence of DMSO or Sotrastaurin (0.1 μM or 1 μM). […] Thus, PKC activator-mediated anti-proliferation effects are dependent on activation of PKC isoforms from conventional, or novel, or both classes of PKCs.
# To assess if PKC activation is required for anti-proliferation effect of PKC activators in cancer cell lines that are sensitive to these activators, a pan-PKC inhibitor Go6983, targeting classes of PKCs (conventional, novel, atypical, and PKCμ), was tested in combination with PKC activators in the proliferation assays. Proliferation assay in lung cancer cell line A549 (FIG. 17) and in pancreatic cell line MiaPaCa-2 (FIG. 18) was performed as described in Example 1. […] Then, K101A or K102 was tested in 8- or 9-point titrations in the presence of DMSO or Go6983 (0.1 μM or 1 μM). […] Thus, PKC activation is required for anti-proliferation effect of PKC activators.
# Proliferation assay was performed as described in Example 1. […] Thus, PKC activator-mediated anti-proliferation effects appear mainly dependent on activation of novel PKC isoforms.
# [2] = system: MiaPaCa-2; test: Proliferation assay, PKC inhibitor in combination with PKC activators, MiaPaCa-2; format: cell-based; conditions: Go6983 0.1 μM or 1 μM with K101A or K102
# [3] = system: PKC isoforms and Erk1/2 in A549 cells; test: PKC inhibitor effect on PKC activator-mediated phosphorylation of PKCs and Erk1/2, A549; format: cell-based; conditions: 30 minutes
# Experimental: To assay if PKC inhibitors have any effects on the PKC activator-mediated phosphorylation of PKCs, A549 cells were pre-treated with DMSO, PKC inhibitors Go6983 (0.3 μM or 1 μM) or Sotrastaurin (0.3 μM or 1 μM) for 30 minutes before adding PKC activators K101A (1 μM) or K102 (0.1 μM) for another 30 minutes (FIG. 22). Cell lysis, protein quantitation, and Western blot analysis were performed as described above in Example 2 and 4. […] Phosphorylation of PKCα/β at Thr638/641 was not affected by the inhibitors (FIG. 22A). […] These PKC inhibitor studies indicate that blocking phosphorylation and activation of various isoforms of PKC is correlated with inhibition of the anti-proliferative effects of the PKC activators.
# Cell lysis, protein quantitation, and Western blot analysis were performed as described above in Example 2 and 4. […] These PKC inhibitor studies also indicate that phosphorylation and activation of novel PKC isoforms and PKCμ is required for the anti-proliferative effects of the PKC activators whereas phosphorylation of PKCδ at Tyr311 is correlated with inhibition of the anti-proliferative effects of PKC activators.
# [4] = system: Mino cells; test: Proliferation assay, PKC inhibitors in combination with PKC activators, Mino; format: cell-based; conditions: Sotrastaurin 0.3/1 μM, Go6983 0.1/1 μM, Go6976 0.3/1 μM, Enzastaurin 1/3 μM
# Experimental: PKC inhibitor studies were performed as described in Example 8, 9, and 10. […] Thus, PKC activator-mediated anti-proliferation effects may be dependent on activation of PKC isoforms from the novel PKC class.
# [5] = system: Namalwa cells; test: Proliferation assay, PKC inhibitors in combination with PKC activators, Namalwa; format: cell-based; conditions: Sotrastaurin 0.3/1 μM, Go6983 0.1/1 μM, Go6976 0.3/1 μM, Enzastaurin at very high concentration of 10 μM
# Experimental: PKC inhibitor studies were performed as described in Example 15. […] Thus, PKC activator-mediated anti-proliferation effects may be dependent on activation of novel PKC isoforms.
# [6] = system: PKC isoforms and Erk1/2 in Mino and Namalwa cells; test: PKC inhibitor effect on K101A-mediated phosphorylation of PKCs and Erk1/2 in Mino and Namalwa cells; format: cell-based
# Experimental: Cell lysis, protein quantitation, and Western blot analysis were performed as described above in Example 2 and 4. […] Again, these PKC inhibitor studies indicate the anti-proliferative effects of the PKC activators appear to be positively associated with phosphorylation and activation of novel PKC isoforms and PKCγ, and negatively associated with the phosphorylation of PKCδ at Tyr311.
# [7] = system: A549 cells; test: Soft agar colony formation assay; format: cell-based
# Experimental: To prepare the base agar layer (0.6%), melted 1.2% agar solution was mixed 1:1 (v/v) with 2×DMEM/20% FBS medium in a tube by inverting several times and 50 μL of the mixture was immediately transferred to a well in a 96-well flat-bottom microplate. The plate was placed at 4° C. for 30 minutes to allow the base agar layer to solidify. Then, the cell agar layer (agar 0.4%) was prepared by transferring 75 μL of the cell and agar mixture containing 1:1:1 (v/v/v) of 1.2% agar solution, 2×DMEM/20% FBS and cell suspension (0.4-4×10^5/mL) to each well of the plates so that each well contained 1000-10000 cells per well. The plates were placed at 4° C. for 15 minutes and then 75 μL of media were added to each well. After incubating the plates overnight in a CO2 incubator, 50 μL of media with or without 5× final concentrations of compounds were added to each well. Each compound was tested in 9-point 3-fold dilution series. The plates were incubated for 7-10 days at 37° C. At the end of incubation period, 28 μL of Calcein AM solution (5 μM) was added to the center of each well. The plates were incubated at 37° C. for 45 minutes before scanning on Acumen (TTP Labtech). Each compound was tested in triplicates. Data was analyzed and compound EC50s were calculated using GraphPad Prism 5.
# [8] = system: PKC substrates in A549 cells; test: Global PKC activation (phosphorylated PKC substrates), Western blot, A549; format: cell-based; conditions: 30 minutes, Phospho-PKC substrate Motif MultiMab
# Experimental: (§1) A549 lung cancer cells (˜3 million cells) were seeded in 10 cm tissue culture dishes and grown overnight. Cells were then treated with different drugs at indicated concentrations (see FIG. 9A for global activation of PKC and FIG. 10 for activation of PKC isoforms) for 30 minutes. Panc2.13 pancreatic cells (˜5 million) were seeded and treated as in FIG. 9B for global activation of PKC. Cell lysate preparation, protein quantitation, SDS-PAGE, and Western blotting procedures are described in Example 2. Primary antibodies used in this Example and later Examples of this application are shown in Table A. Western blot membranes were scanned using Odyssey® Imaging System (Licor Biosciences) if secondary antibodies Anti-mouse IgG Dylight 800 conjugate or Anti-rabbit IgG DyLight 680 conjugate (1:10000)(Cell signaling or similar IR 2nd antibodies from different vendors) were used. Alternatively, Imagequant LAS4000 (GE) was used to scan membranes if secondary antibodies Anti-mouse IgG HRP conjugate or Anti-rabbit IgG HRP conjugate (dilutions from 1:2000-1:10000) were used.
# [9] = system: PKC substrates in Panc2.13 cells; test: Global PKC activation (phosphorylated PKC substrates), Western blot, Panc2.13; format: cell-based; conditions: Phospho-(Ser) PKC Substrate Antibody
# Experimental: as §1
# [10] = system: PKC isoforms in A549 cells; test: Activation of PKC isoforms, Western blot, A549; format: cell-based; conditions: 30 minutes
# Experimental: as §1
# [11] = system: PKCμ; test: PKCμ phosphorylation in A549, HCT116, SW620, Panc02.13 cells, Western blot; format: cell-based; conditions: 30 minutes
# Experimental: (§2) Non-cancerous lung fibroblast cell line HFL-1 or cancer cells (2-8 million cells) were seeded in 10 cm dishes and grown overnight so that the cells were about 40-80% confluent before treatment with the compound. Cells were then treated with different drugs at indicated concentrations (see descriptions for FIG. 11 and FIG. 12) for 30 minutes. Cell lysate preparation, protein quantitation, SDS-PAGE, and Western blotting procedures are described in Example 2 and 4. Primary antibodies used in this Example and later Examples of this application are shown in Table A. Secondary antibodies Anti-mouse IgG HRP conjugate or Anti-rabbit IgG HRP conjugate (dilutions from 1:2000-1:10000) were used. Western blot membranes were scanned using Imagequant LAS4000 (GE).
# [12] = system: PKCδ; test: PKCδ Tyr311 phosphorylation in A549, HCT116, SW620, Panc02.13 cells, Western blot; format: cell-based; conditions: 30 minutes
# Experimental: as §2, with “(GE). The results are shown in FIG. 11A and FIG. 11B for HFL-1 cells and FIG. 11C and FIG. 12 for A549 cells.” for “(GE).”
# [13] = system: PKC isoforms in Panc2.13 cells; test: Time course of activation of PKC isoforms in Panc2.13; format: cell-based; conditions: extended periods (16 h and 24 h), K102 0.1 μM, K103 0.01 μM versus K101A
# Experimental: Cells of pancreatic cancer cell line Panc2.13 were seeded as described above, and the cell confluence was between 40-80% the next day. […] Phosphorylation at multiple PKC isoforms, such as Ser744/748 or Ser916 for PKCμ, phosphorylation at Thr638/641 for PKCα/β, phosphorylation at Ser660 for PKCβII (pan-PKC), phosphorylation at Ser643/676 for PKCδ/θ, and phosphorylation at Thr505 for PKCδ, were detected.
# [14] = system: K-Ras mutant pancreatic, lung, and colon cancer cell lines, leukemia cell lines; test: Proliferation assays, panel of cancer cell lines (summary statements); format: cell-based
# Experimental: Briefly, cells at a density of 1,000-10,000 cells/well were seeded in 96-well plates and incubated at 37′C for 24 hours. A series of 9 different concentrations of compound stocks (500×) were created by 3-fold serial dilution in DMSO. These compounds were further diluted in culture media and then added to cells so that the final DMSO concentration was 0.2%. After 96 hours of incubation, 50 μL of CellTiter Glo reagent (Promega) was added to each well and luminescence was measured after 10 minutes using EnVision (PerkinElmer). […] The dose range for most compounds was 4.6 nM-30 μM. The dose ranges for some compounds were adjusted downward to 0.46 nM-3 μM or 0.08 nM-0.5 μM or 0.03 nM-0.2 μM. Luminescence from cells treated with […] alone was set as Max and % of inhibition was calculated as follows: Inhibition %=(Max-Sample value)/Max*100. Data was analyzed using XL-fit software (ID Business Solutions Ltd.) and EC50, relative EC50, and % of top inhibition were calculated. The results are shown in Tables 3-6 for pancreatic cancer, lung cancer, colon/gastric cancer, and leukemia cell lines.
# [15] = literature reports; cited from earlier work
# [16] = inhibitor pre-treatment 0.3 μM or 1 μM
compound,measurement,setting,value
COc1ccc2c(c1)c(C1=C(c3c[nH]c4ccccc34)C(=O)NC1=O)cn2CCCN(C)C [Go6983],effect on PKC activator-mediated anti-proliferation effects,[1],inhibited the PKC activator-mediated anti-proliferation effects in a dose-dependent manner
same,effect on PKC activator-mediated anti-proliferation effects,[2],inhibited the PKC activator-mediated anti-proliferation effects in a dose-dependent manner
same,K101A- and K102-induced phosphorylation of Erk1/2,[3]; [16],blocked dose-dependently
same,"K101A- or K102-induced phosphorylation, P-PKCμ (Ser916), P-PKCμ (Ser744/748), P-PKCδ (Thr505)",[3]; [16],blocked in a dose-dependent manner
same,Phosphorylation of PKCα/β at Thr638/641,[3]; [16],not affected
same,"K101A- or K102-induced phosphorylation of PKCμ at Ser916 or Ser744/748, PKCδ at Thr505, and Erk",[3]; inhibitor pre-treatment 1 μM,completely abolished
same,phosphorylation of PKCδ at Tyr311 induced by PKC inhibitor,[3]; inhibitor pre-treatment 1 μM,induced phosphorylation of PKCδ at Tyr311
same,effect on PKC activator-mediated anti-proliferation effects,[4],dose-dependently blocked
same,effect on PKC activator-mediated anti-proliferation effects,[5],dose-dependently blocked
same,phosphorylation of PKCδ at Tyr311 induced by PKC inhibitor,[6]; inhibitor pre-treatment 30 minutes,induced robust phosphorylation
same,"K101A-induced phosphorylation of PKCμ at Ser916 or Ser744/748, PKCδ at Thr505, and Erk","[6]; inhibitor pre-treatment 30 minutes (Go6983, Sotrastaurin 1 μM)",completely abolished
"CCCCCCCCCCCCCC(=O)O[C@@H]1[C@@H](C)[C@@]2(O)[C@@H](C=C(CO)C[C@]3(O)C(=O)C(C)=C[C@@H]23)[C@@H]2C(C)(C)[C@]12OC(C)=O [Compound K-103, 12-O-Tetradecanoylphorbol-13-acetate]",number of colonies formed in soft agar,"[7]; 7-10 days, 9-point dilution series",reduced the number of colonies
same,potency rank in soft agar assay,"[7]; K103, followed by K102, K101A, and K101E",Most potent compound
same,phosphorylation of PKC substrates (global activation of PKC),[8],potently elevated
same,phosphorylation of PKC substrates (global activation of PKC),[9],potently elevated
same,P-PKCδ (Thr505) and P-PKCδ/θ (Ser643/676),[10],potently increased
same,P-PKC (pan)(βII Ser660) and P-PKCα/β (Thr638/641),[10]; high levels already in DMSO treated cells,no further increases
same,"PKCμ activation, phosphorylation at Ser744/748",[11],observed for all four cancer cell lines
same,"PKCμ activation, phosphorylation at Ser916",[11],"observed primarily in cell lines A549 and Pan 02,13; also recorded: observed primarily in cell lines A549 and Panc02.13"
same,"PKCδ activation, phosphorylation at Tyr311",[12],"observed for PKC activator insensitive cell lines HCT116 and SW620 but not as significantly for sensitive cell lines A549 and Pan 02,13; also recorded: observed for cell lines HCT116 and SW620 but not as significantly for cell lines A549 and Panc02.13"
same,"reducing the phosphorylation at βII Ser660 of PKC (pan), to a lesser extent Thr638/641 of PKCα/β",[13],more potent
same,potency in proliferation inhibition relative to prostratin,[14],more potent in proliferation inhibition
same,tumor promotion,[15],tumor-promoting
